Activity calls are given as the source filed them. No cut-off for these calls is given here.

What all share (assay type): functional
Experiment [1] relates to Frankliniella occidentalis. Briefly: Thrips luring activity against female Frankliniella occidentalis (western flower thrips) assessed as induction of thrips to walk up odor-laden arm of Y-tube olfactometer at 1 uL by Y-tube olfactometer bioassay.
The test system of experiment [2] is Frankliniella occidentalis. As to the kind of experiment: Thrips luring activity against female Frankliniella occidentalis (western flower thrips) assessed as induction of thrips to walk up odor-laden arm of Y-tube olfactometer at 5 x 10^-4 uL by Y-tube olfactometer bioassay.
Experiment [3] relates to Frankliniella occidentalis. Briefly: Thrips luring activity against female Frankliniella occidentalis (western flower thrips) assessed as induction of thrips to walk up odor-laden arm of Y-tube olfactometer at 5 x 10^-1 uL by Y-tube olfactometer bioassay.
The test system of experiment [4] is Frankliniella occidentalis. Briefly: Thrips luring activity against female Frankliniella occidentalis (western flower thrips) assessed as induction of thrips to walk up odor-laden arm of Y-tube olfactometer at 5 x 10^-3 uL by Y-tube olfactometer bioassay.
Experiment [5] concerns Frankliniella occidentalis. As to the kind of experiment: Thrips luring activity against female Frankliniella occidentalis (western flower thrips) assessed as induction of thrips to walk up odor-laden arm of Y-tube olfactometer by Y-tube olfactometer bioassay.
Experiment [6] relates to Frankliniella occidentalis. As to the kind of experiment: Thrips luring activity against female Frankliniella occidentalis (western flower thrips) assessed as trapping of thrips using compound treated yellow sticky traps relative to untreated control under commercial greenhouse.
Another experiment deals with Thrips obscuratus. Briefly: Thrips luring activity against female New Zealand Thrips obscuratus (flower thrips) assessed as induction of thrips to walk up odor-laden arm of Y-tube olfactometer by Y-tube olfactometer bioassay.
In experiment [7] the test system is Frankliniella occidentalis. As to the kind of experiment: Thrips luring activity against female Frankliniella occidentalis (western flower thrips) assessed as induction of thrips to walk up odor-laden arm of Y-tube olfactometer at 1 x 10^-2 uL by Y-tube olfactometer bioassay.
The subject of experiment [8] is Frankliniella occidentalis. As to the kind of experiment: Thrips luring activity against female Frankliniella occidentalis (western flower thrips) assessed as induction of thrips to walk up odor-laden arm of Y-tube olfactometer at 1 x 10^-3 uL by Y-tube olfactometer bioassay.
The test system of experiment [9] is Frankliniella occidentalis. Briefly: Thrips luring activity against female Frankliniella occidentalis (western flower thrips) assessed as induction of thrips to walk up odor-laden arm of Y-tube olfactometer at 1 x 10^-1 uL by Y-tube olfactometer bioassay.
Experiment [10] relates to Frankliniella occidentalis. Briefly: Thrips luring activity against female Frankliniella occidentalis (western flower thrips) assessed as induction of thrips to walk up odor-laden arm of Y-tube olfactometer at 1 x 10^-5 uL by Y-tube olfactometer bioassay.

Turning to `CC(C)=CCOC(=O)c1ccncc1` [ISO-PENTENYL ISONICOTINATE], the Activity in experiment [1] came out at 49%.

As for `c1cc(C2OCCO2)ccn1` [PYRIDINE, 4-(1,3-DIOXALAN-2-YL)], the Activity in [2] is 48%; in experiment [3], 61%; in experiment [4], 63%.

As for `CCOC(=O)c1ccncc1` [ETHYL ISONICOTINATE], the MAD in [5] turned out to be 1 ×10⁻⁴ microL; in the experiment with Thrips obscuratus, 1 ×10⁻³ microL. In addition, in [6], the “fold change (FC)” value came out at 14.

In the case of `N#Cc1ccncc1` [ISONICOTINONITRILE], the Activity in experiment [3] was 39%.

In the case of `CCOC(=O)C1CCNCC1` [ETHYL ISONIPECOTATE], the results for the Activity in experiment [7] and in [1] were 49% and 63%, respectively.

Regarding `CCCOC(=O)c1ccncc1` [N-PROPYL ISONICOTINATE], in [5], the MAD is listed as 1 ×10⁻³ microL.

As to `CC(C)OC(=O)c1ccncc1` [ISOPROPYL ISONICOTINATE], the MAD in [5] came to 1 ×10⁻² microL.

As to `CC(=O)c1ccncc1` [METHYL 4-PYRIDYLKETONE], in experiment [6], the “fold change (FC)” value is recorded as 4.5.

Consider `CC(C)N(C(=O)c1ccncc1)C(C)C` [DI-ISOPROPYL ISONICOTINAMIDE], for which the Activity in experiment [3] came out at 81%.

For `COC(=O)c1ccncc1` [METHYL ISONICOTINATE], the MAD in experiment [5] came to 1 ×10⁻⁶ microL. Also, the “fold change (FC)” value in [6] came out at 14.

As to `CCCC(O)c1ccncc1` (centres undefined) [1-(4-pyridyl)-1-butanol], the Activity in experiment [1] worked out at 47%.

On to `CCCCC(=O)OC1CC2CCC1(C)C2(C)C` (centres undefined), for which the outcome in experiment [5] was Active.

As to `OCCc1ccncc1` [4-(2-HYDROXYETHYL)PYRIDINE], the Activity in experiment [7] was found to be 59%; in [8] it was 48%; in experiment [1], 79%.

As for `CCCC(=O)c1ccncc1` [PROPYL 4-PYRIDYL KETONE], the values for the Activity in experiment [9] and in [1] were 47% and 55%, respectively.

For the compound `OCc1ccncc1` [PYRIDINE 4-METHANOL], the Activity in experiment [1] worked out at 52%.

Take `O=Cc1ccncc1` [4-FORMYLPYRIDINE]: the Activity in experiment [7] was 15%. For the same compound, the result in experiment [10] was Active.

On to `CCOC(=O)c1cccnc1` [ETHYL NICOTINATE], for which the MAD with Thrips obscuratus was determined as 1 ×10⁻⁶ microL.

Turning to `CCOC(=O)c1ccnc(Cl)c1`, the outcome in experiment [5] was Active.

Take `COc1ccc(C=O)cc1` [ANISALDEHYDE]: in experiment [10], the Activity amounted to 52%.
